According to patent publication US9247759B2, “Identification of human T2R receptors that respond to bitter compounds that elicit the bitter taste in compositions, and the use thereof in assays to identify compounds that inhibit (block) bitter taste in compositions and use thereof” (SENOMYX, INC., priority 2007, dated 2016):

Columns and labels:
hT2R63 = experiment: hT2R panel inhibition, transient HEK293 G16g44, agonist Caffeine 1 mM or Andrographolide 100 μM; type: cell-based, human; settings: compound at 25 μM; receptor activated to EC80 with the corresponding agonist
In short: (§1)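 Each human T2R transiently transfected into HEK293 cells stably expressing G16g44; functional receptor assays run with the listed bitter agonist at EC80 concentration. Inhibition recorded as reduction of agonist-induced receptor activity in presence of Compound C.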

hT2R67 = experiment: hT2R panel inhibition, transient HEK293 G16g44, agonist Andrographolide 5 μM; type: cell-based, human; settings: compound at 25 μM; receptor activated to EC80 with the corresponding agonist
In short: as §1

hT2R61 = hT2R61 (Homo sapiens (Human), UniProt P59537); experiment: hT2R panel inhibition, transient HEK293 G16g44, agonist Aristolochic Acid 25 nM; type: cell-based; settings: HEK293, compound at 25 μM; receptor activated to EC80 with the corresponding agonist; read-out: screening result against bitter receptor 61
In short: as §1

hT2R3 = hT2R3 (Homo sapiens (Human), UniProt Q9NYW6); experiment: hT2R panel inhibition, transient HEK293 G16g44, agonist Chloroquine pH6.5 50 μM; type: cell-based; settings: HEK293, compound at 25 μM; receptor activated to EC80 with the corresponding agonist; read-out: screening result against bitter receptor 3
In short: as §1

hT2R64 = hT2R64 (Homo sapiens (Human), UniProt P59538); experiment: hT2R panel inhibition, transient HEK293 G16g44, agonist Aristolochic Acid 1 μM; type: cell-based; settings: HEK293, compound at 25 μM; receptor activated to EC80 with the corresponding agonist; read-out: screening result against bitter receptor 64
In short: as §1

hT2R55 = experiment: hT2R panel inhibition, transient HEK293 G16g44, agonist Cinchonine 150 μM; type: cell-based, human; settings: compound at 25 μM; receptor activated to EC80 with the corresponding agonist
In short: as §1

hT2R10 = hT2R10 (Homo sapiens (Human), UniProt Q9NYW0); experiment: hT2R panel inhibition, transient HEK293 G16g44, agonist Strychnine 50 μM; type: cell-based; settings: HEK293, read-out: screening result against bitter receptor 10, compound at 25 μM; receptor activated to EC80 with the corresponding agonist
hT2R5 = hT2R5 (Homo sapiens (Human), UniProt Q9NYW4); experiment: hT2R panel inhibition, transient HEK293 G16g44, agonist Picoline 10 mM; type: cell-based; settings: HEK293, compound at 25 μM; receptor activated to EC80 with the corresponding agonist; read-out: screening result against bitter receptor 5
In short: as §1

hT2R54 = experiment: hT2R panel inhibition, transient HEK293 G16g44, agonist Ranitidine 5 mM; type: cell-based, human; settings: compound at 25 μM; receptor activated to EC80 with the corresponding agonist
In short: as §1

hT2R71 = hT2R71 (Homo sapiens (Human), UniProt P59536); experiment: hT2R panel inhibition, transient HEK293 G16g44, agonist Picric Acid 10 μM; type: cell-based; settings: HEK293, compound at 25 μM; receptor activated to EC80 with the corresponding agonist; read-out: screening result against bitter receptor 71
In short: as §1

hT2R65 = experiment: hT2R panel inhibition, transient HEK293 G16g44, agonist Oleuropein 1 mM; type: cell-based, human; settings: compound at 25 μM; receptor activated to EC80 with the corresponding agonist
In short: as §1

hT2R7 = hT2R7 (Homo sapiens (Human), UniProt Q9NYW3); experiment: hT2R panel inhibition, transient HEK293 G16g44, agonist Chloroquine pH6.5 10 mM; type: cell-based; settings: HEK293, compound at 25 μM; receptor activated to EC80 with the corresponding agonist; read-out: screening result against bitter receptor 7
In short: as §1

hT2R14 [1] = molecular target: T1, hT2R14 (Homo sapiens (Human), UniProt Q9NYV8); experiment: hT2R panel inhibition, transient HEK293 G16g44, agonist Aristolochic Acid 2 μM; type: cell-based; settings: HEK293, compound at 25 μM; receptor activated to EC80 with the corresponding agonist; read-out: screening result against bitter receptor 14
In short: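 Each hT2R was transiently transfected into HEK293 cells stably expressing G16g44 and assayed functionally for inhibition of agonist response. Agonists were applied at EC80: andrographolide at 0.5 mM for hT2R8 and aristolochic acid at 2 μM for hT2R14.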

hT2R16 = hT2R16 (Homo sapiens (Human), UniProt Q9NYV7); experiment: hT2R panel inhibition, transient HEK293 G16g44, agonist Salicin 1 mM; type: cell-based; settings: HEK293, compound at 25 μM; receptor activated to EC80 with the corresponding agonist; read-out: screening result against bitter receptor 16
In short: as §1

hT2R75 = hT2R75 (Homo sapiens (Human), UniProt P59540); experiment: hT2R panel inhibition, transient HEK293 G16g44, agonist Strychnine 1 μM; type: cell-based; settings: HEK293, read-out: screening result against bitter receptor 75, compound at 25 μM; receptor activated to EC80 with the corresponding agonist
hT2R51 = hT2R51 (Homo sapiens (Human), UniProt P59533); experiment: hT2R panel inhibition, transient HEK293 G16g44, agonist Prop 2.5 μM; type: cell-based; settings: HEK293, compound at 25 μM; receptor activated to EC80 with the corresponding agonist; read-out: screening result against bitter receptor 51
In short: as §1

hT2R44 = experiment: hT2R panel inhibition, transient HEK293 G16g44, agonist Denatonium 0.5 μM; type: cell-based, human; settings: compound at 25 μM; receptor activated to EC80 with the corresponding agonist
In short: as §1

hT2R9 = hT2R9 (Homo sapiens (Human), UniProt Q9NYW1); experiment: hT2R panel inhibition, transient HEK293 G16g44, agonist Ofloxacin 1 mM; type: cell-based; settings: HEK293, compound at 25 μM; receptor activated to EC80 with the corresponding agonist; read-out: screening result against bitter receptor 9
Procedure: Specifically, in order to evaluate the inhibitory selectivity of the Compound C compound, this compound was tested against 22 human T2Rs which were deorphaned by Senomyx. These receptors and the bitter ligands that activate these human T2Rs are reported in earlier patent applications which are incorporated by reference herein. These 22 human T2Rs are hT2R1, 3, 4, 5, 7, 8, 9, 10, 13, 14, 16, 44, 51, 54, 55, 61, 63, 64, 65, 67, 71 and 75. The amino acid and nucleic acid sequences of all of these T2Rs may be found in these earlier patent applications. These human T2Rs were each individually transiently transfected into HEK293 cells that stably express the promiscuous G protein G16g44 and functional assays were effected using these receptors as disclosed in these same patent applications. […] The ligands were used at EC80 concentration levels. The list of bitter ligands utilized and the tested ligand concentrations are contained in Table 5 of this example.
Relating to the foregoing, FIG. 5 contains experimental results wherein Compound C was tested with different agonist compounds. The inhibition activity is represented by the reduction of receptor activity in the presence of Compound C. […] These 13 hT2Rs are hT2R3, 7, 10, 14, 16, 44, 51, 55, 61, 63, 64, 65, and 71.

hT2R14 [2] = molecular target: T1, hT2R14; experiment: hT2R14 antagonist high-throughput FLIPR assay, stable cell line with G16g44, agonist aristolochic acid; type: cell-based; settings: read-out: IC50 on hT2R14 bitter receptor
In short: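 HEK293 cells stably expressing hT2R14 with chimeric G16g44 were stimulated with aristolochic acid (3 μM), giving 70-80% of maximal receptor activity. Test compounds were added together with the agonist, and antagonism was read as fluorescent calcium signal on FLIPR.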

hT2R4 = hT2R4 (Homo sapiens (Human), UniProt Q9NYW5); experiment: hT2R panel inhibition, transient HEK293 G16g44, agonist Chloroquine pH6.5 5 mM; type: cell-based; settings: HEK293, compound at 25 μM; receptor activated to EC80 with the corresponding agonist; class symbols; read-out: screening result against bitter receptor 4
In short: as §1

Chain of hT2R4 (Q9NYW5 whole entry): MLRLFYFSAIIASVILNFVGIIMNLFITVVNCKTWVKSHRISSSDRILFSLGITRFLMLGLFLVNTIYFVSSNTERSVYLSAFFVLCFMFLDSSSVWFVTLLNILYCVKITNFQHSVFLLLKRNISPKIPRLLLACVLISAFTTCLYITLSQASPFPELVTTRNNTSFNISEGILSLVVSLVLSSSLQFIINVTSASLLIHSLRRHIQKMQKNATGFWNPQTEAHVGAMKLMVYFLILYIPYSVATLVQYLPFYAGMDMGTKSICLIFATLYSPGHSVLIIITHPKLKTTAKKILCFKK
Chain of hT2R5 (Q9NYW4 whole entry): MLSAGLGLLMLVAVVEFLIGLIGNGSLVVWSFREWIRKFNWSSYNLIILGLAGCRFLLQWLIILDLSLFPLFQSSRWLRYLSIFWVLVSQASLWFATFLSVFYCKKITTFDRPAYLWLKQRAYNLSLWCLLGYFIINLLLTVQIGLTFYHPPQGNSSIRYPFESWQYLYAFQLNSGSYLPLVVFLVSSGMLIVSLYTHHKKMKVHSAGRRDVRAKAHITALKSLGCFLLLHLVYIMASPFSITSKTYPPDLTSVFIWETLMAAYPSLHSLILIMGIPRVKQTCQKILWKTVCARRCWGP
Chain of hT2R9 (Q9NYW1 whole entry): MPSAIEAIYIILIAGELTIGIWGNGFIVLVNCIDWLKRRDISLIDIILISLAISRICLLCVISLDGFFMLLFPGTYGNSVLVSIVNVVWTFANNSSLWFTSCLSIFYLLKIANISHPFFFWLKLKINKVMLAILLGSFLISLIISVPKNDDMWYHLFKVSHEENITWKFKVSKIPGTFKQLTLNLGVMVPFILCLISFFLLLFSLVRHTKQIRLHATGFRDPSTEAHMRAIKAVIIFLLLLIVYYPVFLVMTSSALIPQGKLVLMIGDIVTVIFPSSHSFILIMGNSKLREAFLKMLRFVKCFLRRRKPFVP
Chain of hT2R75 (P59540 whole entry): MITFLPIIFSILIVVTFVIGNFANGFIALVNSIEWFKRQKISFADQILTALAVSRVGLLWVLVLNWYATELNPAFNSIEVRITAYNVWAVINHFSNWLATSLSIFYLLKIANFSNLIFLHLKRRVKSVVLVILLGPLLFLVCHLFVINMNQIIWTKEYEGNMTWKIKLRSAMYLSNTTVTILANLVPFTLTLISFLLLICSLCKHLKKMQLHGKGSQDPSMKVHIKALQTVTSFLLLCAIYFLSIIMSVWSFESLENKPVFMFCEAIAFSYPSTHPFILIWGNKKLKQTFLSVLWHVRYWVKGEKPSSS
Chain of hT2R51 (P59533 whole entry): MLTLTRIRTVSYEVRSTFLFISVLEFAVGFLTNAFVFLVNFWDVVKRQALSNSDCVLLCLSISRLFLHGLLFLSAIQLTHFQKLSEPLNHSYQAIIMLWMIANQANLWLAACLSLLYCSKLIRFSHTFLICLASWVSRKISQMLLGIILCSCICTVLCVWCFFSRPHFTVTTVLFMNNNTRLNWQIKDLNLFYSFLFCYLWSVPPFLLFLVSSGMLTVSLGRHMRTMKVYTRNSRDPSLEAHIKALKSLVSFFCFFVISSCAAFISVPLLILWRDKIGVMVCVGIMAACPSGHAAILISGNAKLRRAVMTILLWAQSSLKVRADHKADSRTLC
T1 sequence (Q9NYV8 whole entry): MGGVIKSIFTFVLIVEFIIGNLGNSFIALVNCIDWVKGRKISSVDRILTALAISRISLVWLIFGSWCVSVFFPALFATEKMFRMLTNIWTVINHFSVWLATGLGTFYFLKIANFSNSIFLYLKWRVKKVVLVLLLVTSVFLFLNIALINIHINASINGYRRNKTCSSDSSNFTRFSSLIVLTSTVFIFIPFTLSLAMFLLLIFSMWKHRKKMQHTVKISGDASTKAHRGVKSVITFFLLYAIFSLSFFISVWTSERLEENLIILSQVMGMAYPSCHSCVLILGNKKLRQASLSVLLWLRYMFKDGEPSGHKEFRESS
Chain of hT2R16 (Q9NYV7 whole entry): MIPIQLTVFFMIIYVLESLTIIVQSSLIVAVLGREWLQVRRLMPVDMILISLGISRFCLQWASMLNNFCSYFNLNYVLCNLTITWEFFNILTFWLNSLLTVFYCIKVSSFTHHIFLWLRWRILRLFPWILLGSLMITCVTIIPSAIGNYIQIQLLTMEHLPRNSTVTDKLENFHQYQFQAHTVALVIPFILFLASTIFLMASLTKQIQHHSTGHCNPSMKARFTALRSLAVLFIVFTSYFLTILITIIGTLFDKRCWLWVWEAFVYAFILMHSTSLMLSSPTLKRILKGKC
Chain of hT2R61 (P59537 whole entry): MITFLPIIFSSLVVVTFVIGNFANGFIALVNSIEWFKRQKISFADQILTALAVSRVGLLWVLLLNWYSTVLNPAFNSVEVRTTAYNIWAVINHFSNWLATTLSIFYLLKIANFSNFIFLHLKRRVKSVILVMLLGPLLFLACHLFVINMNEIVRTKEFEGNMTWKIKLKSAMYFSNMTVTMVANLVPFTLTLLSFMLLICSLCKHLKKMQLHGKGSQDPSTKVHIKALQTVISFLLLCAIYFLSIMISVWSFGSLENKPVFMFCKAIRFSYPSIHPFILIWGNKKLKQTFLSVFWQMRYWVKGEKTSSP
Chain of hT2R64 (P59538 whole entry): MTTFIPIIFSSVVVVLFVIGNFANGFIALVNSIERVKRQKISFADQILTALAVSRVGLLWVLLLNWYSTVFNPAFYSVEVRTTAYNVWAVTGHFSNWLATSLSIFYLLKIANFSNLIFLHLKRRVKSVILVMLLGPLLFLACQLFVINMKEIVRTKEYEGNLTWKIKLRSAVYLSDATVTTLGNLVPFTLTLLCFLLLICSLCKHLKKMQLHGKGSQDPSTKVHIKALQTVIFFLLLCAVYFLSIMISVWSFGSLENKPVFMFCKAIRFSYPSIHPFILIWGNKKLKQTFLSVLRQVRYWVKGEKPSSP
Chain of hT2R10 (Q9NYW0 whole entry): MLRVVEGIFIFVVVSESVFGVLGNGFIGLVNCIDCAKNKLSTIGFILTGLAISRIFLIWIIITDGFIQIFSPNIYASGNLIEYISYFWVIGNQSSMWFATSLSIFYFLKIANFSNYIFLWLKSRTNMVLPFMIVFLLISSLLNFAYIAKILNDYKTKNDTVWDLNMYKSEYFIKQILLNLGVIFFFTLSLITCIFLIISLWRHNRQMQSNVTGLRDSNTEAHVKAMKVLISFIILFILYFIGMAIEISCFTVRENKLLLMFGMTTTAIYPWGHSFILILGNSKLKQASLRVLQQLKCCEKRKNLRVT
Chain of hT2R3 (Q9NYW6 whole entry): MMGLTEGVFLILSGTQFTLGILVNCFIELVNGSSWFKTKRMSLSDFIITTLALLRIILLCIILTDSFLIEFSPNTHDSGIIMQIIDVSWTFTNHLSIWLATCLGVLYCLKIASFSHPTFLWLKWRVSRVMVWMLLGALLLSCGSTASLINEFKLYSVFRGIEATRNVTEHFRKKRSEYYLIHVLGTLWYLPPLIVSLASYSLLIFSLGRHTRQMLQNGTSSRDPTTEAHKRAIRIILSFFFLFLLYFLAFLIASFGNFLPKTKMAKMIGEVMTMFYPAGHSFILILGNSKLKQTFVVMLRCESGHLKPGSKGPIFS
Chain of hT2R71 (P59536 whole entry): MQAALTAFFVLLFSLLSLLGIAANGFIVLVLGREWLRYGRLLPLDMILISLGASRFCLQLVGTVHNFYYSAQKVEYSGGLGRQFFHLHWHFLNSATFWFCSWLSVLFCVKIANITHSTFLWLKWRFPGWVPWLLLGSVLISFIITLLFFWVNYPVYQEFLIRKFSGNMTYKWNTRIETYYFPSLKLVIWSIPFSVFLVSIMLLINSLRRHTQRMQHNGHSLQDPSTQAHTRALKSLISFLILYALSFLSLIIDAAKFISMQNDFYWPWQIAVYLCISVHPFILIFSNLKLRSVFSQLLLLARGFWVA
Chain of hT2R7 (Q9NYW3 whole entry): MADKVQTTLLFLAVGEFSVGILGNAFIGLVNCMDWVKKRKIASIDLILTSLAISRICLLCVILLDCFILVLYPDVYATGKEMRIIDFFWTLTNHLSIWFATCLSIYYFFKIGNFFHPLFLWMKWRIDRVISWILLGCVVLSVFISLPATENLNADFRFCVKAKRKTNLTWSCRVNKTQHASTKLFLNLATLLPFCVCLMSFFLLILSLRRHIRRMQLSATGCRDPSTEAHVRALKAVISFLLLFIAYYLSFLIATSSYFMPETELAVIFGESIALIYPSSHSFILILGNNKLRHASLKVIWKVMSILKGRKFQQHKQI

SMILES | screening result against bitter receptor 63 (hT2R63) | screening result against bitter receptor 67 (hT2R67) | inhibition at 25 µM (hT2R61) | inhibition at 25 µM (hT2R3) | inhibition at 25 µM (hT2R64) | screening result against bitter receptor 55 (hT2R55) | inhibition at 25 µM (hT2R10) | inhibition at 25 µM (hT2R5) | screening result against bitter receptor 54 (hT2R54) | inhibition at 25 µM (hT2R71) | screening result against bitter receptor 65 (hT2R65) | inhibition at 25 µM (hT2R7) | inhibition at 25 µM (hT2R14 [1]) | inhibition at 25 µM (hT2R16) | inhibition at 25 µM (hT2R75) | inhibition at 25 µM (hT2R51) | screening result against bitter receptor 44 (hT2R44) | inhibition at 25 µM (hT2R9) | IC50 (hT2R14 [2]) | inhibition at 25 µM (hT2R4)
Cc1ccccc1CN(Cc1ccccc1)S(=O)(=O)c1ccc(C(=O)O)cc1 [Example 5-80, 4-(N-benzyl-N-(2-methylbenzyl)sulfamoyl)benzoic acid] | ++++ (80% or greater inhibition = ++++) | + (20% to 40% inhibition = +) | 60 to 80% | 40 to 60% | 60 to 80% | +++ (60% to 80% inhibition = +++) | 20 to 40% | 20 to 40% | + (20% to 40% inhibition = +) | 60 to 80% | ++ (40% to 60% inhibition = ++) | 20 to 40% | > 80% | 20 to 40% | 20 to 40% | 40 to 60% | + (20% to 40% inhibition = +) | 20 to 40% | – | –
COc1ccc(CN(Cc2ccccc2C#N)S(=O)(=O)c2ccc(C(=O)O)cc2)cc1 [Example 5-25, 4-(N-(2-cyanobenzyl)-N-(4-methoxybenzyl)sulfamoyl)benzoic acid] | – | ++ (40% to 60% inhibition = ++) | – | 60 to 80% | – | +++ (60% to 80% inhibition = +++) | 60 to 80% | 40 to 60% | +++ (60% to 80% inhibition = +++) | – | ++++ (80% or greater inhibition = ++++) | 40 to 60% | > 80% | 40 to 60% | – | 20 to 40% | +++ (60% to 80% inhibition = +++) | 20 to 40% | 4.61 µM | 20 to 40%
Cc1ccc(S(=O)(=O)N(Cc2ccccc2)CC2CCC(C(=O)O)CC2)cc1 (stereo not shown) [Example 5-11, 4-((N-benzyl-4-methylphenylsulfonamido)methyl)cyclohexane-carboxylic acid] | +++ (60% to 80% inhibition = +++) | + (20% to 40% inhibition = +) | > 80% | 60 to 80% | 40 to 60% | ++++ (80% or greater inhibition = ++++) | 40 to 60% | 20 to 40% | – | 60 to 80% | + (20% to 40% inhibition = +) | 40 to 60% | > 80% | 40 to 60% | 40 to 60% | – | +++ (60% to 80% inhibition = +++) | 20 to 40% | 0.014 µM | 60 to 80%
COc1ccc(CN(Cc2ccccc2)S(=O)(=O)Cc2ccc(C(=O)O)cc2)cc1 [Example 5-16, 4-((N-benzyl-N-(4-methoxybenzyl)sulfamoyl)methyl)benzoic acid] | – | – | 60 to 80% | 40 to 60% | > 80% | ++++ (80% or greater inhibition = ++++) | 20 to 40% | 20 to 40% | – | 40 to 60% | + (20% to 40% inhibition = +) | 20 to 40% | 20 to 40% | 20 to 40% | 20 to 40% | – | +++ (60% to 80% inhibition = +++) | 20 to 40% | – | 20 to 40%
CCOc1ccc(CN(Cc2ccco2)S(=O)(=O)c2ccc(C(=O)O)cc2)cc1 [Example 5-3, 4-(N-(4-ethoxybenzyl)-N-(furan-2-ylmethyl)sulfamoyl)benzoic acid] | +++ (60% to 80% inhibition = +++) | – | 40 to 60% | 40 to 60% | > 80% | ++++ (80% or greater inhibition = ++++) | 40 to 60% | – | ++ (40% to 60% inhibition = ++) | 20 to 40% | + (20% to 40% inhibition = +) | – | > 80% | 20 to 40% | – | 20 to 40% | ++ (40% to 60% inhibition = ++) | 20 to 40% | 3 µM | 60 to 80%
